{"source": "patent US12364673B2", "about": "“Methods and compositions for treating lysosomal storage disorders: ambroxol as treatment agent for Mucopolysaccharidoses III (Sanfilippo syndrome)” (Lysosomal and Rare Disorders Research and Treatment Center, …, priority 2019, dated 2025)", "key": {"[1]": {"tested_on": "heparan-alpha-glucosaminide N-acetyltransferase (HGSNAT)", "assay": "HGSNAT enzyme activity in PBMC", "type": "cell-based, human", "protocol": "PBMC were cultured for 5 days with an increasing concentration of ambroxol.\nHGSNAT enzyme activity was measured and compared as negative control versus ambroxol incubated PBMC derived from a patient with MPS III Type C (FIG. 2)."}, "[2]": {"tested_on": "autophagy fusion with the lysosome", "assay": "Autophagy fusion staining with DALGreen detection reagent", "type": "cell-based, human"}, "[3]": {"tested_on": "acidic lysosomes", "assay": "Lysosome staining with LysoTracker Red DND-99 dye", "type": "cell-based, human", "protocol": "To examine the effects of ambroxol on autophagy-lysosomal pathway, the autophagy dye […] and lysosome marker LysoTracker Red were used. […] The autophagy fusion was studied using autophagy detection reagent […] fluorescence probe stained autophagosome on late-phase autophagy when autophagosome fused with a lysosome. Lysosome organelles were analyzed using LysoTracker Red DND-99 red-fluorescent dye which stained acidic organelles in live cells. PBMC were isolated from the patient with MPS III-B disease, incubated five days with ambroxol, and then were stained. […] Macrophages derived from a patient with MPS III Type C."}, "[4]": {"tested_on": "N-acetyl-alpha-glucosaminidase (NAGLU)", "assay": "NAGLU enzyme activity in patient-derived PBMC", "type": "cell-based, human", "conditions": "PBMC from MPS III Type B patient, 5 days incubation", "protocol": "PBMC were cultured for 5 days with an increasing concentration of ambroxol. […] We measured enzyme activity in PBMC (peripheral blood mononuclear cell) derived from MPS III Type B patients with NAGLU enzyme deficiency. After incubation for five days in the presence of 1, 10, and 100 μM of ambroxol, NAGLU enzyme activity was measured and compared negative control versus ambroxol incubated cells (FIG. 1). […] PBMC were cultured for 5 days with an increasing concentration of ambroxol."}, "[5]": {"tested_on": "PBMC", "assay": "Cell viability of ambroxol incubated PBMC", "type": "cell-based, human", "conditions": "100 μM ambroxol"}, "[6]": {"tested_on": "lysosomal integral membrane protein-2 (LIMP-2)", "conditions": "cited from earlier work"}, "[7]": {"tested_on": "heparan sulfate (HS)", "assay": "Heparan sulfate ELISA in PBMC cell extracts", "type": "cell-based, human", "protocol": "To investigate the effect of ambroxol on HS degradation, the heparin sulfate ELISA assay (Aviva Systems Siology) was assessed. PBMC derived from healthy controls and MPS III patients were incubated with a concentration of ambroxol 1, 10 and 100 μM. PBMC after five days of incubation were collected and heparan sulfate levels were measured in cells extracts."}, "[8]": {"tested_on": "PBMC", "assay": "ATP production of ambroxol incubated PBMC", "type": "cell-based, human", "conditions": "100 μM ambroxol"}, "[9]": {"molecular_target": "T1, glucocerebrosidase (GCase) (Homo sapiens, UniProt P04062)", "T1 sequence (P04062 40-536)": "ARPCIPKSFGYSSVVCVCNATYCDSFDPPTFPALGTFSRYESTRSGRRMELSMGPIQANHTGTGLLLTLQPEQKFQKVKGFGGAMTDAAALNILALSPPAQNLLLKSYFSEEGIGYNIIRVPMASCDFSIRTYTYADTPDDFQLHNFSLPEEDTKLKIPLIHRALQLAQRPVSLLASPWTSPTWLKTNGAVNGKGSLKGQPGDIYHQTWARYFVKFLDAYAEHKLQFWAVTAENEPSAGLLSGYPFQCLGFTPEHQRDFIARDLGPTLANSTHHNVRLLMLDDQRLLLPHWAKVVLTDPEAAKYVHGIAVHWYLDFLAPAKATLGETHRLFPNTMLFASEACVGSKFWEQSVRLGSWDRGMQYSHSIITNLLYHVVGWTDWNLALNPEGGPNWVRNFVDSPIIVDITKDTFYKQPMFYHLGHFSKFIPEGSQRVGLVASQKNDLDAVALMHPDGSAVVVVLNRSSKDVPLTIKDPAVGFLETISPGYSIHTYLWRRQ", "conditions": "pH 4.3, near lysosomal pH; cited from earlier work"}, "[10]": {"conditions": "PBMC from patient with MPS III-B, five days with ambroxol"}, "[11]": {"conditions": "macrophages from patient with MPS III Type C, 5 days with ambroxol"}}, "data": [{"smiles": "Nc1c(Br)cc(Br)cc1CN[C@H]1CC[C@H](O)CC1", "note": "[ambroxol, trans-4-(2-Amino-3,5-dibromobenzylamino)-cyclohexanol]", "values": [{"measurement": "HGSNAT activity", "setting": "[1]; PBMC from a healthy subject, ambroxol incubation (data not shown)", "value": "no increase"}, {"measurement": "HGSNAT activity", "setting": "[1]; PBMC from a patient with MPS III Type C, 5 days ambroxol incubation", "value": "no increase"}, {"measurement": "autophagy fusion (DALGreen staining)", "setting": "[2]; PBMC from healthy control, five days with ambroxol", "value": "significant increase"}, {"measurement": "activity of autophagy fusion (DALGreen staining)", "setting": "[2]; [10]", "value": "increasing"}, {"measurement": "autophagy fusion (DALGreen staining)", "setting": "[2]; PBMC from two patients with MPS III-D, five days with ambroxol", "value": "significant increase"}, {"measurement": "activity of autophagy fusion (DALGreen staining)", "setting": "[2]; [11]", "value": "increasing"}, {"measurement": "proportion of acidic lysosomes (LysoTracker Red staining)", "setting": "[3]; [10]", "value": "significant increasing"}, {"measurement": "lysosome function", "setting": "[3]; cells derived from healthy controls and MPS III-B, MPS III-C and MPS III-D patients (summary)", "value": "activates"}, {"measurement": "proportion of acidic lysosomes (LysoTracker Red staining)", "setting": "[3]; [11]", "value": "significant increasing"}, {"measurement": "NAGLU enzyme activity increase vs negative control", "setting": "[4]; 1 μM ambroxol", "value": 15, "unit": "%"}, {"measurement": "NAGLU enzyme activity increase vs negative control", "setting": "[4]; 10 μM ambroxol", "value": 15, "unit": "%"}, {"measurement": "NAGLU activity", "setting": "[4]; 100 μM ambroxol", "value": "Decreasing"}, {"measurement": "cell viability", "setting": "[5]", "value": "decreasing"}, {"measurement": "LIMP-2 level", "setting": "[6]", "value": "increased"}, {"measurement": "heparan sulfate (HS) level", "setting": "[7]; PBMC from MPS III-A patient, 5 days with ambroxol, vs negative control", "value": "decreased"}, {"measurement": "heparan sulfate (HS) level", "setting": "[7]; PBMC from MPS III-B patient, 5 days, 10 μM ambroxol", "value": "decreased"}, {"measurement": "heparan sulfate (HS) level", "setting": "[7]; PBMC from MPS III-B patient, 5 days, 100 μM ambroxol", "value": "decreased"}, {"measurement": "heparan sulfate (HS) level", "setting": "[7]; PBMC from MPS III-C patient, 5 days with ambroxol, vs negative control", "value": "decreasing"}, {"measurement": "heparan sulfate (HS) level", "setting": "[7]; PBMC from MPS III-D patient, 5 days, 10 μM ambroxol", "value": "decreased"}, {"measurement": "heparan sulfate (HS) level", "setting": "[7]; PBMC from MPS III-D patient, 5 days, 100 μM ambroxol", "value": "decreased"}, {"measurement": "heparan sulfate (HS) level", "setting": "[7]; PBMC from healthy controls (n=4), 5 days with ambroxol, vs negative control", "value": "decreased"}, {"measurement": "ATP production", "setting": "[8]", "value": "inhibition"}, {"measurement": "effect on GCase enzyme", "setting": "[9]", "value": "activator"}]}]}
